The structures appear in SMILES notation. The source made the active and inactive calls.

Holding throughout (assay type): functional
The target of test [1] is T1, Replicative DNA helicase DnaB (Mycobacterium tuberculosis, UniProt P9WMR3).
T1 sequence (P9WMR3 whole entry): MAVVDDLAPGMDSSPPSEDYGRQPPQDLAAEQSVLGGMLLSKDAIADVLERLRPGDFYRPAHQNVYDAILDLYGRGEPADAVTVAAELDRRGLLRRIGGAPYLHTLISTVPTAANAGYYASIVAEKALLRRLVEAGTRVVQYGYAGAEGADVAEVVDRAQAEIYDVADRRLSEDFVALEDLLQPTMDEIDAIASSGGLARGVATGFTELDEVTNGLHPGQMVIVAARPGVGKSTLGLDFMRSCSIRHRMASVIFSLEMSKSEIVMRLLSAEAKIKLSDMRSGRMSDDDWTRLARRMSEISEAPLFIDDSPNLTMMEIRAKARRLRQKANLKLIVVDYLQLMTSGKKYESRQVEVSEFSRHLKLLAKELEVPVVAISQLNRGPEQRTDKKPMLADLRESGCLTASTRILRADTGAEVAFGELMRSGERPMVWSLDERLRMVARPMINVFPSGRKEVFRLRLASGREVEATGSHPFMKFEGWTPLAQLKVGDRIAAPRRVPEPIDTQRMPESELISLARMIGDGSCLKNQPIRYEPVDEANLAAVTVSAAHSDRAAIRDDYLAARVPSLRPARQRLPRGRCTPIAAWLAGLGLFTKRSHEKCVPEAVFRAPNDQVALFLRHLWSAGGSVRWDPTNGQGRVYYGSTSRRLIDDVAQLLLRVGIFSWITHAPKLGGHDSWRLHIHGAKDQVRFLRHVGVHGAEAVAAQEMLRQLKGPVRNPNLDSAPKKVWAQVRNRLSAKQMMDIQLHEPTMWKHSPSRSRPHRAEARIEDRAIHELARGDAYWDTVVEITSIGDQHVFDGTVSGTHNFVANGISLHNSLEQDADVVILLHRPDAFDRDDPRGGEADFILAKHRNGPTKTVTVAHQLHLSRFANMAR
The experiment in a line: DnaB intein splicing inhibitors, dose response, biochemical, cell-free fluorescence (AID 449749).

In test [2] the target is T2, High affinity choline transporter 1 (Homo sapiens, UniProt Q9GZV3).
T2 sequence (Q9GZV3 whole entry): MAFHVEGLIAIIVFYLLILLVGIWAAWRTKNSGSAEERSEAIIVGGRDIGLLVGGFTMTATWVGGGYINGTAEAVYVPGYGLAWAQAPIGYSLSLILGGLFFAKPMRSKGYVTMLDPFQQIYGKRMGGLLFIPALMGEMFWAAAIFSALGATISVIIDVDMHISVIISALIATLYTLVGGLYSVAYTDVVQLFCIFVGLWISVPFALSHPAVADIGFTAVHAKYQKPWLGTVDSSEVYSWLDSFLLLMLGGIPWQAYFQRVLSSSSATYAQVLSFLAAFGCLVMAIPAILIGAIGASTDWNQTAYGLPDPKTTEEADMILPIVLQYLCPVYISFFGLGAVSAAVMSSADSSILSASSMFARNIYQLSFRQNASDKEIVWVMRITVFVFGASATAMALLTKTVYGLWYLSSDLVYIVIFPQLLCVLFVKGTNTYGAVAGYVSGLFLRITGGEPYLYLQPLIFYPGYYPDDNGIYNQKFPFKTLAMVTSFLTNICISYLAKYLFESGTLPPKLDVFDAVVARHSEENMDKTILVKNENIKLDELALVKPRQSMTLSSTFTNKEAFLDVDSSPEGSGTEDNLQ
In words: human choline transporter blockers, potency – cell-based, 5-point CRC, membrane potential dye, dose response (AID 504840).

In test [3] the target is T3, Protein RecA (Mycobacterium tuberculosis, UniProt P9WHJ3).
T3 sequence (P9WHJ3 whole entry): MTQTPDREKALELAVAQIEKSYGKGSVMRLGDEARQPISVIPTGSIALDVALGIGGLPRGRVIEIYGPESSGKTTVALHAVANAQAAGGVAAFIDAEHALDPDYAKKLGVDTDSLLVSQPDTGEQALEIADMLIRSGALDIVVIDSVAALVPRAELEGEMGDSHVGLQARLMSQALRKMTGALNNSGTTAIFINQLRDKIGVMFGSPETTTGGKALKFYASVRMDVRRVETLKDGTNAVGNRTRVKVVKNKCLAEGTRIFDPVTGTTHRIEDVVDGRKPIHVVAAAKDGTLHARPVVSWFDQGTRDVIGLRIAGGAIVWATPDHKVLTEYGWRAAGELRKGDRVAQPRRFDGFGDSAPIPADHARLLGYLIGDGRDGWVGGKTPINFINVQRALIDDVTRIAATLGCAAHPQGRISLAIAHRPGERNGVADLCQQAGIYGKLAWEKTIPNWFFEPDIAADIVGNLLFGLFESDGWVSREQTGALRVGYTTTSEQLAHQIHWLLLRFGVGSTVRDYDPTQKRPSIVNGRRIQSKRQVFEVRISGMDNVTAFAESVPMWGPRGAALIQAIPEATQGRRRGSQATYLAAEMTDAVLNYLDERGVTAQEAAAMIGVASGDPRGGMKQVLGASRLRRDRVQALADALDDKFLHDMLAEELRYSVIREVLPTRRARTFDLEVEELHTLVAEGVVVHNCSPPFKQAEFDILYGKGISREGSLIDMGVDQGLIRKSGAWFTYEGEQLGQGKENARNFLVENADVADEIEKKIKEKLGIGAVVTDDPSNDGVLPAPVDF
In words: Fluorescence Cell-Free Homogeneous Dose Retest to Identify Inhibitors of RecA-Intein Splicing Activity. [Related pubchem assays (depositor defined):AID2097, AID2223, AID489010, AID492950].

The nature of test [4]: non-specific 3'UTR reporter inhibition in Clone20-Shn3RL – cell-based, Renilla luciferase, cherry-picked, counter-screen for Shn3 inhibitor project, dose response (AID 624133). For orientation: A counterscreen serves to expose hits that act by an unwanted route or on another target.
Test [5] deals with T2, High affinity choline transporter 1. In words: human choline transporter blockers, potency – cell-based, 10-point CRC, membrane potential dye, dose response (AID 588401).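 Further: membrane potential dye fluorescence of choline-evoked depolarization via CHT.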
The nature of test [6]: reduction of Shn3 3'UTR-driven luciferase in osteoblasts – cell-based, Clone20 osteoblasts, firefly luciferase, cherry-picked, dose response (AID 624132).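 Further: firefly luciferase luminescence from reporter carrying the Shn3 3'UTR in osteoblasts.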
The subject of test [7] is Vero. In words: cells. The following applies: Chlorocebus sabaeus.
The nature of test [8]: loss of viability in HepG2 cells – cell-based, CellTiter-Glo, cherry-picked, cytotoxicity control for Shn3 inhibitor project, dose response (AID 624134). On the technique in general: Cellular ATP, detected with luciferase, serves as a proxy for viable cell number.

By AC50 is commonly meant the concentration at which the activity in the assay is half-maximal. One may read the IC50 as the concentration at which inhibition is half-maximal. Usually EC50 stands for the midpoint of the concentration-response curve. In general, CC50 refers to the concentration that lowers cell viability or growth by half. As to `Cc1nnc(NC(=O)c2nc(S(=O)(=O)Cc3ccccc3)ncc2Cl)s1`, the AC50 was 17.8 µM (active) in test [1], 12.8 µM (active) in test [4], 1.34 µM (active) in test [6] and > 70 µM (inactive) in test [8]. Moreover, the IC50 in test [2] was 7.31 µM (active); in test [5], 4.47 µM (active). Further, in test [3], the EC50 was 4.01 µM (active). In addition, the CC50 in test [7] was 17.8 µM (active).

The record behind these values is ChEMBL document CHEMBL1201862, “PubChem BioAssay data set” (2004).
